Measurements from patent US20240358692A1, “TREATMENT OF SCLERODERMA” (Aisa Pharma, Inc., priority 2023, published 2024).

Assays:
participants with SSc-RP [1] = experiment: SHAQ - Visual Analog Scale - Breathing Problems; type: in vivo, human; set-up: Visual Analog Scale-Breathing Problems, In Clinic Visit (Day 12), Mean / Visual Analog Scale-Breathing Problems, In Clinic Visit (Day 12), Median / SHAQ Visual Analogue Scale - Breathing Problems, In-Clinic Visit (Day 12), Mean / SHAQ Visual Analogue Scale - Breathing Problems, In-Clinic Visit (Day 12), Median / SHAQ Visual Analogue Scale - Breathing Problems, Change from Baseline, Median: scale not given here
Excerpt: (§1) The standard, validated, patient reported outcome measures tool for SSc patients, the Scleroderma Health Assessment Questionnaire (SHAQ), will be used to assess the participant qualify of life. Details are attached in the Appendix. The participant quality of life will be scored, and a disability index calculated for each questionnaire completed by the patient at Screening and each in-clinic visit. The absolute change in participant quality of life from baseline to the end of each dosing period will be calculated similar to frequency data as before.
(§2) The standard, validated, patient reported outcome measures tool for SSc patients, the SHAQ, was collected at the time points specified in the study schedules (FIG. 2 and FIGS. 4A and 4B) to assess the participant's quality of life. The SHAQ included a Raynaud's VAS that will also be reported separately.

participants with SSc-RP [2] = experiment: SHAQ - Visual Analog Scale - Overall Disease Severity; type: in vivo, human; details: tadalafil 5 mg
Excerpt: as §1, §2

[3] = Modified ITT Population-Part A, dose cilnidipine 10 mg, tadalafil 5 mg, alone or combined as labelled
[4] = Tadalafil 5 mg, SSc patients, PP, Part A

In the case of `CN1CC(=O)N2[C@H](c3ccc4c(c3)OCO4)c3[nH]c4ccccc4c3C[C@@H]2C1=O` [Tadalafil], the “Visual Analog Scale-Breathing Problems, Change from Baseline, Mean” value (participants with SSc-RP [1]; Modified ITT Population-Part A, Day 12, dose cilnidipine 10 mg, tadalafil 5 mg, alone or combined as labelled) was 0.500, the “Visual Analog Scale-Breathing Problems, In Clinic Visit (Day 12), Mean” value (participants with SSc-RP [1]; [3]) was 4.300 and the “Visual Analog Scale-Breathing Problems, In Clinic Visit (Day 12), Median” value (participants with SSc-RP [1]; [3]) was 4.000. The “SHAQ VAS Breathing Problems, Change from Baseline, Max” value (participants with SSc-RP [1]; [4]) was 2.80, the “SHAQ VAS Breathing Problems, Change from Baseline, Mean” value (participants with SSc-RP [1]; [4]) was 0.500 and the “SHAQ VAS Breathing Problems, Change from Baseline, Median” value (participants with SSc-RP [1]; [4]) was 1.050. The “SHAQ VAS Breathing Problems, Change from Baseline, Min” value (participants with SSc-RP [1]; [4]) was −2.90,, the “SHAQ VAS Breathing Problems, Change from Baseline, Q1” value (participants with SSc-RP [1]; [4]) was −1.450, and the “SHAQ VAS Breathing Problems, Change from Baseline, Q3” value (participants with SSc-RP [1]; [4]) was 2.450. For the same compound, the “SHAQ VAS Breathing Problems, Day 12, Max” value (participants with SSc-RP [1]; [4]) was 9.20, the “SHAQ VAS Breathing Problems, Day 12, Mean” value (participants with SSc-RP [1]; [4]) was 4.300 and the “SHAQ VAS Breathing Problems, Day 12, Median” value (participants with SSc-RP [1]; [4]) was 4.000. For the same compound, the “SHAQ VAS Breathing Problems, Day 12, Min” value (participants with SSc-RP [1]; [4]) was 0.00,, the “SHAQ VAS Breathing Problems, Day 12, Q1” value (participants with SSc-RP [1]; [4]) was 0.100, and the “SHAQ VAS Breathing Problems, Day 12, Q3” value (participants with SSc-RP [1]; [4]) was 8.500. For the same compound, the “SHAQ VAS Breathing Problems, Percent Change from Baseline, Max” value (participants with SSc-RP [1]; [4]) was 56.0, the “SHAQ VAS Breathing Problems, Percent Change from Baseline, Mean” value (participants with SSc-RP [1]; [4]) was −2.66 and the “SHAQ VAS Breathing Problems, Percent Change from Baseline, Median” value (participants with SSc-RP [1]; [4]) was 29.58. The “SHAQ VAS Breathing Problems, Percent Change from Baseline, Min” value (participants with SSc-RP [1]; [4]) was −93.5,, the “SHAQ VAS Breathing Problems, Percent Change from Baseline, Q1” value (participants with SSc-RP [1]; [4]) was −93.55, and the “SHAQ VAS Breathing Problems, Percent Change from Baseline, Q3” value (participants with SSc-RP [1]; [4]) was 56.00. The “VAS Overall Severity Change from Baseline Max” value (participants with SSc-RP [2]) was 2.40, the “VAS Overall Severity Change from Baseline Median” value (participants with SSc-RP [2]) was 0.700 and the “VAS Overall Severity Change from Baseline Min” value (participants with SSc-RP [2]) was −1.30. The “VAS Overall Severity Change from Baseline Q1” value (participants with SSc-RP [2]) was −0.600, the “VAS Overall Severity Change from Baseline Q3” value (participants with SSc-RP [2]) was 1.850 and the “VAS Overall Severity Day 12 Max” value (participants with SSc-RP [2]) was 9.10. The “VAS Overall Severity Day 12 Mean” value (participants with SSc-RP [2]) was 5.600, the “VAS Overall Severity Day 12 Min” value (participants with SSc-RP [2]) was 0.20 and the “VAS Overall Severity Day 12 Q1” value (participants with SSc-RP [2]) was 2.200. For the same compound, the “VAS Overall Severity Day 12 Q3” value (participants with SSc-RP [2]) was 9.000, the “VAS Overall Severity Percent Change from Baseline Max” value (participants with SSc-RP [2]) was 100.0% and the “VAS Overall Severity Percent Change from Baseline Min” value (participants with SSc-RP [2]) was −23.6%. The “VAS Overall Severity Percent Change from Baseline Q1” value (participants with SSc-RP [2]) was −3.48% and the “VAS Overall Severity Percent Change from Baseline Q3” value (participants with SSc-RP [2]) was 68.46%.
